Laboratory results from US9764046B2, “Labeling composition for intraocular tissue, labeling method of intraocular tissue, and screening method” (CANON KABUSHIKI KAISHA, priority 2008, dated 2017).
Several values for one entry are separate records, joined by “and”; a condition that tells them apart may be missing. Equal entries are not always repeated.

What was measured:
[1] = test system: intraocular tissue (retinal tissue incl. photoreceptor cell layer, vitreous body) of Zebrafish 7-day-old embryo; assay: Staining of intraocular tissue of Zebrafish fry by exposure to staining liquid, ocular tissue section observed by confocal microscope; type: in vivo; details: Zebrafish 7 dpf fry, 1 μg/mL, 1 hour exposure, fixed ocular section
[2] = Excitation and fluorescence wavelengths by fluorescence spectrometer FL4500; type: physicochemical; details: in nm (unit assumed)
[3] = aqueous solution: 10 mg/mL DMSO solution diluted to 1/500 with purified water (Examples 1 to 94)
[4] = values in a chloroform solution (Examples 95 to 106)

Row | Structure (SMILES) | Staining ability [1] | λem (fluorescence wavelength) [2, 3] | λex (excitation wavelength) [2, 3] | Stained site [1] | λem (fluorescence wavelength) [2, 4] | λex (excitation wavelength) [2, 4]
1 | CCCCN1C(=O)/C(=c2\s/c(=C/c3ccc4c(c3)C3CCCC3N4c3ccc(OC)cc3)c(=O)n2CC(=O)OCC)SC1=S (stereo not shown) [Compound 68] | ++ | 527 | 450 |  |  | 
2 | CCCCN1C(=O)/C(=c2\s/c(=C/c3ccc4c(c3)C3CCCC3N4c3ccccc3)c(=O)n2CC(=O)OCC)SC1=S (stereo not shown) [Compound 69] | ++ | 609 | 653 |  |  | 
3 | COc1ccc(N2c3ccc(/C=C/C4=[N+](CCC(=O)O)c5ccccc5C4(C)C)cc3C3CCCC32)cc1.[I-] (stereo not shown) [Compound 71] | ++ | 671 | 592 |  |  | 
4 | CCN1C(=O)/C(=c2\s/c(=C/c3cc(Br)c4c(c3)C3CCCC3N4Cc3ccccc3)c(=O)n2CC(=O)O)SC1=S (stereo not shown) [Compound 73] | ++ | 649 | 548 |  |  | 
5 | COc1ccc(N2c3ccc(/C=C/C4=[N+](C)c5ccccc5C4(C)C)cc3C3CCCC32)cc1.[Br-] (stereo not shown) [Compound 74] | ++ | 669 | 614 | 1 |  | 
6 | COc1ccc(N2c3ccc(/C=C/C4=[N+](CCC(=O)O)c5ccc6ccccc6c5C4(C)C)cc3C3CCCC32)cc1.[I-] (stereo not shown) [Compound 75] | ++ | 683 | 619 | 1 |  | 
7 | CC1(C)C(/C=C/c2ccc3c(c2)C2CCCC2N3c2ccc(C=C(c3ccccc3)c3ccccc3)cc2)=[N+](CCC(=O)O)c2ccc3ccccc3c21 (stereo not shown) [Compound 76] | ++ | 724 | 674 |  |  | 
8 | COc1ccc(N2c3ccc(/C=C/c4sc5ccccc5[n+]4CCC(=O)O)cc3C3CCCC32)cc1 (stereo not shown) [Compound 77] | ++ | 668 | 583 |  |  | 
9 | O=C(O)CC[n+]1c(/C=C/c2ccc3c(c2)C2CCCC2N3c2ccc(C=C(c3ccccc3)c3ccccc3)cc2)sc2ccccc21.[I-] (stereo not shown) [Compound 78] | ++ | 726 | 598 | 1 |  | 
10 | CCN1C(=S)S/C(=c2/s/c(=C/c3ccc4c(c3)C3CCCC3N4c3ccc(C=C(c4ccccc4)c4ccccc4)cc3)c(=O)n2CC(=O)O)C1=S (stereo not shown) [Compound 79] | ++ | 702 | 567 |  |  | 
11 | CCN1C(=O)/C(=c2/s/c(=C/c3ccc4c(c3)C3CCCC3N4c3ccc(C=C(c4ccccc4)c4ccccc4)cc3)c(=O)n2CC(=O)O)SC1=S (stereo not shown) [Compound 80] | ++ | 673 | 551 |  |  | 
12 | CC[n+]1c(C=c2sc(=Cc3ccc4c(c3)C3CCCC3N4c3ccc(C=C(c4ccccc4)c4ccccc4)cc3)c(=O)n2-c2ccccc2)sc2ccccc21.[Br-] (stereo not shown) [Compound 82] | +++ | 721 | 591 | 2 |  | 
13 | COc1ccc(N2c3ccc(/C=C/c4sc5c6ccccc6ccc5[n+]4CCC(=O)O)cc3C3CCCC32)cc1.[I-] (stereo not shown) [Compound 83] | ++ | 682 | 605 | 2 |  | 
14 | CCOC(=O)Cn1c(=Cc2sc3ccccc3[n+]2C)sc(=Cc2ccc3c(c2)C2CCCC2N3c2ccc(C=C(c3ccccc3)c3ccccc3)cc2)c1=O.[Br-] (stereo not shown) [Compound 84] | ++ | 718 | 599 | 2 |  | 
15 | CC[n+]1c(C=C2SCC(=O)N2c2ccccc2)sc2ccccc21.[Br-] [Compound 85] | ++ | 503 | 353 | 2 |  | 
16 | CCN1C(=O)/C(=c2\s/c(=C/c3ccc4c(c3)C3CCCC3N4CC)c(=O)n2CC)SC1=S (stereo not shown) [Compound 86] | ++ | 671 | 623 |  |  | 
17 | CCCCNc1ccc2c3c(cccc13)C(=O)N(CCCC)C2=O [Compound 87] | ++ | 551 | 466 |  |  | 
18 | CCOC(=O)c1cc(/C=C/C=C/c2sc3ccccc3[n+]2CC(=O)O)c2cccccc1-2.[Br-] [Compound 88] | ++ | 503 | 450 | 1 |  | 
19 | CC/N=c1\cc2oc3cc(NCC)c(C)cc3c(-c3ccccc3C(=O)CC)c-2cc1C [Compound 90] | ++ | 550 | 528 |  |  | 
20 | CCN(CC)c1ccc2c(-c3ccc(S(=O)(=O)NCCC(=O)O)cc3S(=O)(=O)O)c3ccc(=[N+](CC)CC)cc-3oc2c1.[Na+] [Compound 95] | ++ | 578 and 590 | 509 and 528 |  |  | 
21 | C=CCN1C(=O)/C(=c2\s/c(=C/c3ccc4c(c3)C3CCCC3N4c3ccc(OC)cc3)c(=O)n2CC(=O)O)SC1=S (stereo not shown) [Compound 97] | ∘ | 680 | 530 |  |  | 

Row | Structure (SMILES) | Staining ability [1] | λem (fluorescence wavelength) [2, 3] | λex (excitation wavelength) [2, 3] | Stained site [1] | λem (fluorescence wavelength) [2, 4] | λex (excitation wavelength) [2, 4]
22 | C=CCN1C(=O)/C(=C2\S/C(=C/c3ccc4c(c3)C3CCCC3N4c3ccccc3)CN2CC(=O)O)SC1=S (stereo not shown) [Compound 98] | ∘ | 690 | 510 |  |  | 
23 | C[n+]1c(C=c2sc(=Cc3ccc4c(c3)C3CCCC3N4c3ccc(C=C(c4ccccc4)c4ccccc4)cc3)c(=O)n2CC(=O)O)sc2ccccc21.[Br-] (stereo not shown) [Compound 101] | ∘ | 760 | 560 | 1 |  | 
24 | CCn1c(=C2SC(=S)N(CC(=O)O)C2=O)sc(=Cc2ccc3c(c2)C2CCCC2N3c2ccccc2)c1=O (stereo not shown) [Compound 102] | ∘ | 700 | 590 | 1 |  | 
25 | CSc1cccc(N2c3ccc(/C=C4/SC(=S)N(CC(=O)O)C4=O)cc3C3CCCC32)c1 (stereo not shown) [Compound 103] | ∘ | 640 | 520 |  |  | 
26 | O=C(O)CN1C(=O)/C(=C2C=C/C(=C\c3ccc4c(c3)C3CCCC3N4c3ccccc3)C\2)SC1=S (stereo not shown) [Compound 106] | ∘ | 650 | 510 |  |  | 
27 | O=C1/C(=C/c2ccc3c(c2)C2CCCC2N3c2ccccc2)Oc2ccc(I)cc21 (stereo not shown) [Compound 107] | ∘ | 490 | 380 |  |  | 
28 | COc1ccc(N2c3ccc(/C=C4\Oc5ccc(I)cc5C4=O)cc3C3CCCC32)cc1 (stereo not shown) [Compound 108] | ∘ | 680 | 530 |  |  | 
29 | Cc1cc(C)cc(Nc2ccc3c4c(cc(=O)n3C)-c3ccccc3C(=O)c24)c1 [Compound 109] | ∘ | 630 | 540 |  |  | 
30 | Cn1c(=O)cc2c3c(c(Nc4ccccc4)ccc31)C(=O)c1ccccc1-2 [Compound 110] | ∘ |  |  |  | 614 | 538
31 | Nc1c(Br)cc(O)c2c1C(=O)c1ccccc1C2=O [Compound 111] | ∘ |  |  |  | 589 | 527
32 | Nc1c(OCCCOc2ccccc2)cc(O)c2c1C(=O)c1ccccc1C2=O [Compound 112] | ∘ |  |  |  | 568 | 513
33 | COC(=O)CCc1ccc(Oc2cc(O)c3c(c2N)C(=O)c2ccccc2C3=O)c(C)c1 [Compound 113] | ∘ |  |  |  | 575 | 514
34 | Nc1c(OCCOC(=O)Oc2ccccc2)cc(O)c2c1C(=O)c1ccccc1C2=O [Compound 114] | ∘ |  |  |  | 568 | 513
35 | Cc1cccc(Nc2ccc3c4c(cc(=O)n3C)-c3ccccc3C(=O)c24)c1 [Compound 115] | ∘ |  |  |  | 614 | 540
36 | COc1ccc(Nc2ccc3c4c(cc(=O)n3C)-c3ccccc3C(=O)c24)cc1 [Compound 116] | ∘ |  |  |  | 584 | 537
37 | CCOc1ccc(Nc2ccc3c4c(cc(=O)n3C)-c3ccccc3C(=O)c24)cc1 [Compound 117] | ∘ |  |  |  | 581 | 538
38 | CCCCc1ccc(Nc2ccc3c4c(cc(=O)n3C)-c3ccccc3C(=O)c24)cc1 [Compound 118] | ∘ |  |  |  | 634 | 540
39 | Cc1ccc(Nc2ccc3c4c(cc(=O)n3C)-c3ccccc3C(=O)c24)c(C)c1 [Compound 120] | ∘ |  |  |  | 609 | 537
40 | Cc1ccc(C)c(Nc2ccc3c4c(cc(=O)n3C)-c3ccccc3C(=O)c24)c1 [Compound 121] | ∘ |  |  |  | 609 | 537
41 | Cc1cccc(C)c1Nc1ccc2c3c(cc(=O)n2C)-c2ccccc2C(=O)c13 [Compound 122] | ∘ |  |  |  | 582 | 534
